“Also recorded” adds a separate entry of the source.
Key:
[1] = test system: LPS-induced neutrophil influx into bronchoalveolar lavage fluid; test: LPS-induced lung inflammation model: inhibition of LPS-induced neutrophil influx into bronchoalveolar lavage fluid; assay type: in vivo, male Wistar rats; conditions: for ED50 (half-maximal effective dose), inhibition of LPS-induced neutrophil influx into BALF: male Wistar rats, oral by gavage, BALF 4 hours after end of LPS exposure, nonlinear fit; for ED50 found in efficacy studies in the rat (restated in dose table): p.o., LPS-induced neutrophil influx
Method: The anti-inflammatory activity of Examples 1 and 2 and of Prior art compounds A and D was assessed in an in vivo LPS-induced lung inflammation model in rats.
As a measure of the pharmacological potency of the above mentioned compounds the half-maximal effective dose (ED50) in regard to the inhibition of lipopolysaccharide-induced (LPS-induced) neutrophil influx into the bronchoalveolar lavage fluid (BALF) was determined by assessing the dose response relationship. Bacterial endotoxins (lipopolysaccharides [LPS]) are components of the outer bacterial cell membrane which play an important role in the pathogenesis of infections with gram-negative bacteria. It is known that inhalation of such aerosolized LPS induces a dose-dependent increase in neutrophils to lung tissues and airspaces in rats which may be detected by analyzing the amount of neutrophils in the bronchoalveolar lavage fluid (BALF). However, this dose-dependent increase of neutrophils in the BALF should be diminished in a dose-dependent way in the presence of an effective PDE4-inhibitor.
Male Wistar rats (HanWistar) from an approved local distributor were used for the experiments. The ordered weight of the animals was in the range of 200-250 g. Animals were fasted overnight before the experiment. A total number of 32 animals were used for each experiment. Eight animals (n=8) per dose were used for the treatment groups, […].
The animals of the LPS-control and of the negative control groups received“vehicle only” (“vehicle only” corresponds to 10 ml/kg body weight 0.5% Natrosol solution). The other groups were treated with the different doses of either Example compound 1, Example compound 2, Prior art compound A or Prior art compound D respectively (see Table D).
The amount of compound for the highest concentration tested for each compound was suspended in 10 ml 0.5% Natrosol (Hydroxyethylcellulose) solution and then diluted to the respective concentrations as shown in Table D. The respective compound suspension or “vehicle only” (10 ml/kg body weight 0.5% Natrosol solution) was administered orally by gavage. The resulting doses of the individual compounds corresponded to Table D:
One hour (0.5 hour for Prior art compound A and for Prior art compound D) after compound application (time set to allow for sufficient exposure as guided by prior pharmacokinetic experiments) the animals were exposed to nebulised/aerosolized LPS. The whole body exposure of 12 animals each was performed in a plexi glas chamber. Animals were separated/individualized with perforated metal plates. The aerosol was generated with a commercially available nebuliser (PARI Master+PARI LL nebuliser (Pari GmbH). The concentration of the nebulized LPS-solution was 1 mg/ml air. The duration of the LPS exposure was 30 minutes.
4 hours after the end of LPS exposure animals were anesthetised with Isoflorane and euthanised thereafter by cervical dislocation. The trachea was cannulated and BALF was performed using 2×5 mL lavage buffer (phosphate buffered saline (PBS)+2% BSA).
Determination of neutrophil content of the BALF was performed using an ADVIA 120 blood hemacytometer (Bayer Diagnostics). Neutrophil data were normalised (Positive Control (=LPS treatment alone)=100%, Negative Control (no LPS treatment, administration of “vehicle only”)=0%) and expressed as percent of LPS control. The ED50 was calculated using a nonlinear fit (with the Graph Pad Prism software and a sigmoidal dose response fit).
The ED50-value is the half-maximal effective dosis of the compound in question with respect to its inhibition of an LPS-induced neutrophil influx into BALF. Consequently a very small ED50-value stands for a good capability of the respective compound to prevent neutrophil influx into the lung tissue after LPS exposure and therefore for a good capacity of the respective compound to prevent inflammation of the lung tissue. […]

[2] = Gastric emptying and gastrointestinal transit in conscious rats (barium sulfate test meal); assay type: in vivo, Wistar rats; conditions: for intestinal transit versus negative control: doses up to 30-fold ED50 dose p.o.
Method: In order to evaluate whether the compounds of the present invention lead to gastrointestinal side effects the compounds of the invention have been administered to rats 30 minutes before the rats were fed with a test meal comprising barium sulfate. After that it was tested whether gastric emptying and/or gastrointestinal transit in these rats was affected by the presence of these compounds.
The effects of the compounds Example 1 and Example 2 on gastric emptying and gastrointestinal transit in conscious rats has been investigated as described below. Wistar rats of both sexes weighing 130-160 g (ages: male 7 wk, female 8 wk) were used. The animals are obtained from an approved local distributor, a minimum of four days quarantine is required before use, during which time the animals are maintained under routine animal care procedures. Groups of up to 5 animals are housed in cages in a room with controlled temperature and humidity and a light/dark cycle with the lights on from 6 a.m. to 6 p.m. The animals have access to normal rodent chow and water ad libitum. The animals are transported to the laboratory on the day of experimentation. Gastric emptying as well as small intestinal propulsion are determined using a barium sulfate test meal. Five rats Crl:WI(Han) of each sex (n=10) were used. The animals were deprived of food 17 h prior to the experiment but allowed free access to water.
The drug under investigation (drug was suspended to the concentration of 10 ml/kg body weight in 0.5% Natrosol solution) or the negative control (vehicle alone was given 10 ml/kg body weight) was administered 30 min. (p.o.) before the test meal at doses calculated to be 3-fold, 10-fold or 30-fold the ED50 found in efficacy studies in the rat.
The test meal (suspension of 7.5 g barium sulfate in 10 ml salt-free water) is given orally by gavage at a dose of 2 ml/100 g body weight. Thirty minutes after the administration of the test meal the animals were killed in deep isoflurane anaesthesia by cervical dislocation. The stomach and the intestine were then exposed by laparatomy and removed.
The removed stomach was weighed, then incised, the contents removed and the empty stomach is weighed again.
The length of gut traversed with barium sulfate in relation to the whole length of the gut is determined by direct measurements using a ruler.
The gastric content was calculated from the weight difference between the filled and empty stomach and normalized to 100 g body weight. Thus, an increase in weight difference indicated an impaired gastric emptying, whereas a decrease in weight difference indicated an enhanced gastric emptying.
The length of gut traversed with barium sulphate (as judged by visual inspection) in relation to the whole length of the gut (from the pylorus to the rectum) is determined by direct measurements using a ruler.
Intestinal transit is calculated as the percentage movement of barium sulphate in the intestine in relation to the whole length of the gut. Consequently an increased intestinal transit length indicated an accelerated intestinal transit whereas a decreased intestinal transit length indicated decelerated intestinal transit.
Data are expressed as mean±standard deviation (SD). For each dose, comparisons were performed using an analysis of variance (ANOVA) and a post hoc Dunnett test to compare the various groups to the controls when the ANOVA was significant. p<0.05 was considered significant.

[3] = all tested doses up to 30-fold ED50 dose p.o.

Row | SMILES | ED50 (half-maximal effective dose), inhibition of LPS-induced neutrophil influx into BALF [1] [mg/kg body weight] | gastric emptying versus negative control [2, 3] | intestinal transit versus negative control [2] | ED50 found in efficacy studies in the rat (restated in dose table) [1] | gastric emptying versus negative control ([2]; 3-fold ED50 dose p.o., 30 min before test meal) | gastric emptying versus negative control ([2]; 10-fold ED50 dose p.o., 30 min before test meal) | gastric emptying versus negative control ([2]; 30-fold ED50 dose p.o., 30 min before test meal)
1 | [O-][S+]1CCc2nc(N3CCC(c4cccc(Cl)c4)CC3)nc(NC3(CO)CC3)c21 (stereo not shown) [Prior art compound D, reference compound] | 6.66 | – | – | – | – | – | –
2 | [O-][S+]1CCc2nc(N3CCC(c4ncc(Cl)cn4)CC3)nc(NC3(CO)CCC3)c21 (single isomer, unassigned) [Example 2] | 0.1 | neither showed a substantially enhanced or impaired gastric emptying; also recorded: no relevant differences | nor a substantially accelerated or decelerated intestinal transit; also recorded: no relevant differences | (ED50 = 0.1 mg/kg BW | – | – | –
3 | [O-][S+]1CCc2nc(N3CCC(c4ccc(Cl)cc4)CC3)nc(NC3(CO)CC3)c21 (stereo not shown) [Prior art compound A, reference compound] | 1.13 | – | – | – | – | – | –
4 | [O-][S+]1CCc2nc(N3CCC(c4ccc(Cl)cc4)CC3)nc(NC3(CO)CCC3)c21 (single isomer, unassigned) [Example 1] | 0.31 | neither showed a substantially enhanced or impaired gastric emptying | nor a substantially accelerated or decelerated intestinal transit; also recorded: no significant differences | (ED50 = 0.31 mg/kg BW | no relevant differences | no relevant differences | only a very moderate enhancement of the weight difference per body weight
